# Laboratory results as given in patent US12643913B2, “Mcl-1 inhibitor formulations” (AMGEN INC., priority 2020, dated 2026).
# Assay: Chemical stability of amorphous solid dispersions (HPLC: LCAP, total impurities) through processing and on storage
# Assay type: physicochemical
# Conditions: all storage conditions
# Description: The chemical and physical stability of AMG 397 50% drug load ASDs generated by spray drying from THF was monitored over 4 weeks under accelerated conditions. Chemical stability was measured by HPLC and physical stability by XRPD, DSC and TGA. Samples were stored at 40° C./75% RH open, 40° C./75% RH closed, 25° C./60% RH closed, and 5° C. closed. All samples were tested after storage for 4 weeks except for the 40° C./75% RH open condition that was also tested at weeks 1 and 2. The THF ASD samples had significant degradation at TO due to the use of THF as the spray solvent. […] Unlike the amorphous DS, the ASD samples were stable when stored at 5° C. for 4-weeks.
# Two further amorphous solid dispersions (ASD) were therefore prepared by spray-drying using DCM as the solvent in place of THF. Soluplus was used to prepare both these dispersions due to its improved stability over HPMC-AS ASDs generated from THF. Two drug loads were investigated, 25% and 50%.
# The chemical stability of AMG 397 Soluplus ASDs generated by spray drying using DCM was monitored during each processing step to ensure that no degradation occurred during spray-drying or secondary drying. Samples were also stored for 4 weeks under the following conditions: 5° C. closed, 25° C. closed, 25°,C/60% RH closed, 25° C./60% RH open, 40° C./75% RH open and 40° C./75% RH closed. […]
smiles,measurement,value
CO[C@]1(CN2CCN3CCCC[C@@H]3C2)/C=C/C[C@H](C)[C@@H](C)S(=O)(=O)NC(=O)c2ccc3c(c2)N(C[C@@H]2CC[C@H]21)C[C@@]1(CCCc2cc(Cl)ccc21)CO3 [AMG 397 Amorphous],Change of total impurities at 4-weeks,Increases in total impurities
